In patent publication US20240277698A1, “METHODS OF USING ALDOSTERONE SYNTHASE INHIBITORS” (CINCOR PHARMA, INC., priority 2021, published 2024):

Test: MAD study: safety (adverse events, vital signs, ECG, laboratory values, body weight)
Assay type: in vivo, human
Conditions: for tolerability: once daily for 10 days
Protocol: (§1) Safety was assessed throughout the study based on AEs, physical examinations, weight measurements, electrocardiograms (ECGs), orthostatic vital sign assessments, and clinical laboratory evaluations. In order to thoroughly assess any potential effect of (R)-compound 1 on QT interval, continuous ECG recordings were also performed, starting approximately 1 hour before dosing, and continuing for approximately 24 hours after dosing on Days 1 and 10.
as §1, with “is” for “was”, “ECGs,” for “electrocardiograms (ECGs), orthostatic”, “sign (including orthostatic)” for “sign”, “performed” for “performed,”, “dosing” for “dosing,”, “10. If cardiodynamic analyses are undertaken, 12-lead ECGs will be extracted at predefined time points paired with PK samples.” for “10.”

[1] = 0.5 mg, normal salt diet, N = 9
[2] = 1.5 mg, normal salt diet, N = 9
[3] = 2.5 mg, normal salt diet, N = 6
[4] = all dose levels including placebo, treatment period
[5] = all subjects receiving (R)-compound 1

CCC(=O)N[C@@H]1CCCc2c(-c3ccc4c(c3)CCC(=O)N4C)cncc21 [(R)-Compound 1, (R)—N-(4-(1-methyl-2-oxo-1,2,3,4-tetrahydroquinolin-6-yl)-5,6,7,8-tetrahydroisoquinolin-8-yl)propionamide]
Any TEAE, % of subjects (0.5 mg NS, N = 9): (11.1) % | Any TEAE, number of subjects (0.5 mg NS, N = 9): 1 | Related TEAE, % of subjects (0.5 mg NS, N = 9): (11.1) % | Related TEAE, number of subjects (0.5 mg NS, N = 9): 1 | Subjects with any AE [1]: 1 (11.1) n (%) | Subjects with any TEAE [1]: 1 (11.1) n (%) | Subjects with any TEAE by maximum severity: Mild [1]: 1 (11.1) n (%) | Subjects with any TEAE by maximum severity: Moderate [1]: 0 (0.0) n (%) | Subjects with any TEAE by maximum severity: Severe [1]: 0 (0.0) n (%) | Subjects with any TEAE leading to death [1]: 0 (0.0) n (%) | Subjects with any TEAE leading to discontinuation [1]: 0 (0.0) n (%) | Subjects with any study drug-related TEAE [1]: 1 (11.1) n (%) | Subjects with any study drug-related TEAE by maximum severity: Mild [1]: 1 (11.1) n (%) | Subjects with any study drug-related TEAE by maximum severity: Moderate [1]: 0 (0.0) n (%) | Subjects with any study drug-related TEAE by maximum severity: Severe [1]: 0 (0.0) n (%) | Subjects with any study drug-related TEAE leading to discontinuation [1]: 0 (0.0) n (%) | Subjects with any study drug-related treatment-emergent SAE [1]: 0 (0.0) n (%) | Subjects with any treatment-emergent SAE [1]: 0 (0.0) n (%) | Any TEAE, % of subjects (1.5 mg NS, N = 9): (11.1) % | Any TEAE, number of subjects (1.5 mg NS, N = 9): 1 | Related TEAE, % of subjects (1.5 mg NS, N = 9): (0) % | Related TEAE, number of subjects (1.5 mg NS, N = 9): 0 | Subjects with any AE [2]: 1 (11.1) n (%) | Subjects with any TEAE [2]: 1 (11.1) n (%) | Subjects with any TEAE by maximum severity: Mild [2]: 1 (11.1) n (%) | Subjects with any TEAE by maximum severity: Moderate [2]: 0 (0.0) n (%) | Subjects with any TEAE by maximum severity: Severe [2]: 0 (0.0) n (%) | Subjects with any TEAE leading to death [2]: 0 (0.0) n (%) | Subjects with any TEAE leading to discontinuation [2]: 0 (0.0) n (%) | Subjects with any study drug-related TEAE [2]: 0 (0.0) n (%) | Subjects with any study drug-related TEAE by maximum severity: Mild [2]: 0 (0.0) n (%) | Subjects with any study drug-related TEAE by maximum severity: Moderate [2]: 0 (0.0) n (%) | Subjects with any study drug-related TEAE by maximum severity: Severe [2]: 0 (0.0) n (%) | Subjects with any study drug-related TEAE leading to discontinuation [2]: 0 (0.0) n (%) | Subjects with any study drug-related treatment-emergent SAE [2]: 0 (0.0) n (%) | Subjects with any treatment-emergent SAE [2]: 0 (0.0) n (%) | Any TEAE, % of subjects (2.5 mg LS, N = 9): (33.3) % | Any TEAE, number of subjects (2.5 mg LS, N = 9): 3 | Related TEAE, % of subjects (2.5 mg LS, N = 9): (22.2) % | Related TEAE, number of subjects (2.5 mg LS, N = 9): 2 | Any TEAE, % of subjects (2.5 mg NS, N = 6): (50) % | Any TEAE, number of subjects (2.5 mg NS, N = 6): 3 | Related TEAE, % of subjects (2.5 mg NS, N = 6): (33.3) % | Related TEAE, number of subjects (2.5 mg NS, N = 6): 2 | Subjects with any AE (2.5 mg, low salt diet, N = 9): 3 (33.3) n (%) | Subjects with any TEAE (2.5 mg, low salt diet, N = 9): 3 (33.3) n (%) | Subjects with any TEAE by maximum severity: Mild (2.5 mg, low salt diet, N = 9): 3 (33.3) n (%) | Subjects with any TEAE by maximum severity: Moderate (2.5 mg, low salt diet, N = 9): 0 (0.0) n (%) | Subjects with any TEAE by maximum severity: Severe (2.5 mg, low salt diet, N = 9): 0 (0.0) n (%) | Subjects with any TEAE leading to death (2.5 mg, low salt diet, N = 9): 0 (0.0) n (%) | Subjects with any TEAE leading to discontinuation (2.5 mg, low salt diet, N = 9): 0 (0.0) n (%) | Subjects with any study drug-related TEAE (2.5 mg, low salt diet, N = 9): 2 (22.2) n (%) | Subjects with any study drug-related TEAE by maximum severity: Mild (2.5 mg, low salt diet, N = 9): 2 (22.2) n (%) | Subjects with any study drug-related TEAE by maximum severity: Moderate (2.5 mg, low salt diet, N = 9): 0 (0.0) n (%) | Subjects with any study drug-related TEAE by maximum severity: Severe (2.5 mg, low salt diet, N = 9): 0 (0.0) n (%) | Subjects with any study drug-related TEAE leading to discontinuation (2.5 mg, low salt diet, N = 9): 0 (0.0) n (%) | Subjects with any study drug-related treatment-emergent SAE (2.5 mg, low salt diet, N = 9): 0 (0.0) n (%) | Subjects with any treatment-emergent SAE (2.5 mg, low salt diet, N = 9): 0 (0.0) n (%) | Subjects with any AE [3]: 3 (50.0) n (%) | Subjects with any TEAE [3]: 3 (50.0) n (%) | Subjects with any TEAE by maximum severity: Mild [3]: 3 (50.0) n (%) | Subjects with any TEAE by maximum severity: Moderate [3]: 0 (0.0) n (%) | Subjects with any TEAE by maximum severity: Severe [3]: 0 (0.0) n (%) | Subjects with any TEAE leading to death [3]: 0 (0.0) n (%) | Subjects with any TEAE leading to discontinuation [3]: 0 (0.0) n (%) | Subjects with any study drug-related TEAE [3]: 2 (33.3) n (%) | Subjects with any study drug-related TEAE by maximum severity: Mild [3]: 2 (33.3) n (%) | Subjects with any study drug-related TEAE by maximum severity: Moderate [3]: 0 (0.0) n (%) | Subjects with any study drug-related TEAE by maximum severity: Severe [3]: 0 (0.0) n (%) | Subjects with any study drug-related TEAE leading to discontinuation [3]: 0 (0.0) n (%) | Subjects with any study drug-related treatment-emergent SAE [3]: 0 (0.0) n (%) | Subjects with any treatment-emergent SAE [3]: 0 (0.0) n (%) | Any TEAE, % of subjects (5 mg LS, N = 9): (33.3) % | Any TEAE, number of subjects (5 mg LS, N = 9): 3 | Related TEAE, % of subjects (5 mg LS, N = 9): (11.1) % | Related TEAE, number of subjects (5 mg LS, N = 9): 1 | Subjects with any AE (5.0 mg, low salt diet, N = 9): 3 (33.3) n (%) | Subjects with any TEAE (5.0 mg, low salt diet, N = 9): 3 (33.3) n (%) | Subjects with any TEAE by maximum severity: Mild (5.0 mg, low salt diet, N = 9): 3 (33.3) n (%) | Subjects with any TEAE by maximum severity: Moderate (5.0 mg, low salt diet, N = 9): 0 (0.0) n (%) | Subjects with any TEAE by maximum severity: Severe (5.0 mg, low salt diet, N = 9): 0 (0.0) n (%) | Subjects with any TEAE leading to death (5.0 mg, low salt diet, N = 9): 0 (0.0) n (%) | Subjects with any TEAE leading to discontinuation (5.0 mg, low salt diet, N = 9): 0 (0.0) n (%) | Subjects with any study drug-related TEAE (5.0 mg, low salt diet, N = 9): 1 (11.1) n (%) | Subjects with any study drug-related TEAE by maximum severity: Mild (5.0 mg, low salt diet, N = 9): 1 (11.1) n (%) | Subjects with any study drug-related TEAE by maximum severity: Moderate (5.0 mg, low salt diet, N = 9): 0 (0.0) n (%) | Subjects with any study drug-related TEAE by maximum severity: Severe (5.0 mg, low salt diet, N = 9): 0 (0.0) n (%) | Subjects with any study drug-related TEAE leading to discontinuation (5.0 mg, low salt diet, N = 9): 0 (0.0) n (%) | Subjects with any study drug-related treatment-emergent SAE (5.0 mg, low salt diet, N = 9): 0 (0.0) n (%) | Subjects with any treatment-emergent SAE (5.0 mg, low salt diet, N = 9): 0 (0.0) n (%) | Subjects with any AE (Overall (R)-compound 1, N = 42): 11 (26.2) n (%) | Subjects with any TEAE (Overall (R)-compound 1, N = 42): 11 (26.2) n (%) | Subjects with any TEAE by maximum severity: Mild (Overall (R)-compound 1, N = 42): 11 (26.2) n (%) | Subjects with any TEAE by maximum severity: Moderate (Overall (R)-compound 1, N = 42): 0 (0.0) n (%) | Subjects with any TEAE by maximum severity: Severe (Overall (R)-compound 1, N = 42): 0 (0.0) n (%) | Subjects with any TEAE leading to death (Overall (R)-compound 1, N = 42): 0 (0.0) n (%) | Subjects with any TEAE leading to discontinuation (Overall (R)-compound 1, N = 42): 0 (0.0) n (%) | Subjects with any study drug-related TEAE (Overall (R)-compound 1, N = 42): 6 (14.3) n (%) | Subjects with any study drug-related TEAE by maximum severity: Mild (Overall (R)-compound 1, N = 42): 6 (14.3) n (%) | Subjects with any study drug-related TEAE by maximum severity: Moderate (Overall (R)-compound 1, N = 42): 0 (0.0) n (%) | Subjects with any study drug-related TEAE by maximum severity: Severe (Overall (R)-compound 1, N = 42): 0 (0.0) n (%) | Subjects with any study drug-related TEAE leading to discontinuation (Overall (R)-compound 1, N = 42): 0 (0.0) n (%) | Subjects with any study drug-related treatment-emergent SAE (Overall (R)-compound 1, N = 42): 0 (0.0) n (%) | Subjects with any treatment-emergent SAE (Overall (R)-compound 1, N = 42): 0 (0.0) n (%) | Any TEAE, % of subjects (Total (R)-Compound 1, N = 42): (26.2) % | Any TEAE, number of subjects (Total (R)-Compound 1, N = 42): 11 | Related TEAE, % of subjects (Total (R)-Compound 1, N = 42): (14.3) % | Related TEAE, number of subjects (Total (R)-Compound 1, N = 42): 6 | decrease in mean BW from baseline [4]: ≤ 2 kg | decrease in mean body mass index from baseline [4]: < 0.65 kg/m^2 | subjects experiencing a TEAE [5]: 11 (26.2%) | subjects experiencing a TEAE considered related to study drug [5]: 6 (14.3%) | subjects experiencing dizziness [5]: 2 (4.8%) | subjects experiencing headache [5]: 4 (9.5%) | subjects experiencing postural dizziness [5]: 3 (7.1%) | BP as compared to placebo (healthy subjects): no clinically significant changes | all other TEAEs (presyncope, eye irritation, abdominal pain, constipation, viral infection, rhinitis, back pain, anxiety, dry throat, dysphonia), subjects each (human, in vivo, oral, 10 days): 1 subject | reduction in glomerular filtration rate (mild): < 15% | plasma sodium and potassium levels (multiple doses): Mild, dose-dependent decreases in plasma sodium levels and increases in plasma potassium levels | tolerability (healthy subjects): safe and well tolerated | tolerability (healthy subjects, listed as (R)-compound 1): safe and well tolerated | decrease in mean BMI from baseline (overall (R)-compound 1 group): −0.442 kg/m^2 | decrease in mean body weight from baseline (overall (R)-compound 1 group): -1.31 kg | QTcF (up to 5 mg QD for 10 days): no meaningful changes
